In patent publication US7740841B1, “Therapeutic method for reducing angiogenesis” (Sunnybrook Health Science Center, priority 2000, dated 2010):

Tests used:
[1] = tested on: neuroblastoma xenograft tumors; assay: Histopathologic analysis of tumors (H/E and TUNEL); format: in vivo, CB-17 SCID mice; settings: excised tumors; combination group at 7.5 weeks of treatment
From the text: Histology: All tumors were excised, fixed in 10% (v/v) formalin and processed for immunohistochemical analysis. To obtain adequate tissue for the combination treatment group, two mice were sacrificed at 7.5 weeks of treatment. Paraffin blocks were cut to 5 μm sections and stained with haematoxylin/eosin for morphology evaluation and with Apoptosis Detection System (Promega, Madison, Wis.) for assessment of programmed cell death.
Histopathologic analysis: To further elucidate the mechanisms involved in the tumor regression following treatment with vinblastine, DC101, or the combined therapy, tissue histopathology assessment was undertaken. Cancer cells with high nuclear to cytoplasmic ratio form cuffs around central vessels, and apoptotic cells characterized by pyknotic nuclei and cytoplasmic blebbing, are only evident as a thin rim at the periphery of the cuffs. The nuclei of these cells stain strongly for terminal deoxynucleotidyl transferase (TUNEL) reactivity, as expected for cells undergoing apoptosis. […] There is a close similarity of the appearance of H/E and TUNEL stain. […] Rather than a typical single layer of flattened endothelial cells surrounding the vascular lumen in untreated group, we observed edema, and detachment from surrounding basement membrane and leading to complete vascular wall disintegration and tumor cell death.

[2] = tested on: SK-N-AS human neuroblastoma xenografts; assay: Tumor perfusion by FITC-Dextran fluorescence; format: in vivo, CB-17 SCID mice; settings: vinblastine 1 mg/m^2 i.p. and/or DC101 800 μg i.p. every three days, 10 days
Procedure: Relative tumor vascularity assessed by an FITC-Dextran perfusion assay: The method was designed to assess the relative functionality of the tumor vasculature. 2×10^6 SK-N-AS neuroblastoma cells were injected into the flanks of CB-17 SCID mice. Tumors were allowed to grow to approximately 0.75 cm^3 at which point tumor bearing mice were then treated with 1 mg/m^2 vinblastine i.p. every three days, 800 μg DC101 i.p. every three days, combination of the two agents or saline as a control. […] Fluorescence readings were obtained on a FL600 Fluorescence Plate Reader (Bio-tek Instruments Inc., Winooski, Vt., USA), from a standard curve created by serial dilution of the FITC-dextran used for injection. The ratio of tumor fluorescence:plasma fluorescence was assumed to be reflective of the degree of tumor perfusion.
Tumor perfusion by assessment of intravascular fluorescence: To further explore the possibility that tumor regression induced with treatment using DC101 and vinblastine was indeed due to the vascular injury, rather than a direct anti-tumor cell effect, we assessed tumor perfusion directly by using a FITC-Dextran fluorescence method. […]

[3] = tested on: bFGF induced vascularization; assay: In vivo Matrigel plug angiogenesis assay; set-up: species or system Balb/cJ mice; settings: DC101 800 μg i.p. and/or vinblastine 1 mg/m^2 i.p. on day 4 and 7, sacrifice day 10
Procedure: In vivo angiogenesis assessment by the Matrigel plug assay (5,25): Matrigel (Collaborative Biomedical Products, Bedford, Mass.) stored at −20° C., was thawed at 4° C. overnight and mixed with 500 ng/ml bFGF. 0.5 ml of this mixture was then injected subcutaneously into the shaved flanks of twenty 6-8 week old female Balb/cJ mice (Jackson Labs, Bar Harbor, Me.). Five mice, used as negative controls, were injected with Matrigel alone. Three days later, treatment mice were randomized into four groups as follows: • Group I—saline i.p., • Group II—800 μg DC101 i.p. • Group III—1 mg/m^2 vinblastine i.p. • Group IV—combination therapy.
All 25 mice were treated on day 4 and 7 and sacrificed on day 10. Blood samples were collected into heparinized tubes by cardiac puncture, centrifuged immediately following their collection, plasma separated and protected from light at 4° C. […] The following day, the plugs were homogenized, centrifuged at 5000 rpm for 10 minutes and supernatant saved in the dark for analysis of fluorescence. Fluorescence readings were obtained on FL600 Fluorescence Plate Reader using a standard curve created by serial dilution of FITC-dextran used for injection. Angiogenic response was expressed as a ratio of Matrigel plug fluorescence:plasma fluorescence.
To address these questions, we repeated the same fluorescence measurement using an in vivo Matrigel plug angiogenesis assay. […]

[4] = tested on: HUVEC; assay: In vitro drug sensitivity, 3H-thymidine incorporation; format: cell-based, human; settings: 24 hours
From the text: (§1) Cells and culture conditions: Neuroblastoma cell lines SK-N-MC, SK-N-AS were obtained from American Type Culture Collection (ATCC) and expanded as a monolayer culture by serial passage on tissue culture plates (Nunc, Denmark) in DMEM, 5% fetal bovine serum (Gibco, Grand Island, N.Y., USA). Human umbilical vein endothelial cells (HUVEC) (Clonetics, San Diego, Calif.) were expanded on 1% gelatin-coated tissue culture plates in MCDB131 culture medium (JRH Biosciences, Lenexa, Kans., USA) supplemented with 5 ng/ml bFGF (R&D, Minneapolis, Minn.), 10 units/ml heparin (Wyeth-Ayerst Canada), 10 ng/ml EGF (UBI, Lake Placid, N.Y.) and 10% fetal bovine serum.
(§2) In vitro determination of drug sensitivity: Three thousand cells in 200 μl growth media per well were plated in 96-well flat bottom tissue culture plates (Nunc, Denmark) and incubated at 37° C., 5% CO2 for 24 hours prior to initiation of treatment. […] The cells were then pulsed for 6 hrs with 2 μCi/well of methyl-^3H-thymidine (Amersham Life Science, Buckinghamshire, England). The plates were frozen, thawed and the DNA harvested onto a filtermat using a Titertek Cell Harvester. Incorporated radioactivity was measured on Wallac 1205 BetaPlate Scintillation Counter (Wallac Oy, Finland) and proliferation was expressed as a percentage of ^3H-thymidine in treated cells vs. that in controls.
(§3) All three cell lines were grown in DMEM with […], but the HUVEC were grown on gelatinized plates and in the presence of additional growth factors (bFGF and EGF).

[5] = tested on: SK-N-AS cells; assay: as above; format: cell-based, human; settings: 100-400 ng/ml, 24 hours
From the text: as §1, §2, §3

[6] = tested on: SK-N-MC neuroepithelioma or SK-N-AS neuroblastoma xenografts; assay: In vivo tumor growth assessment, subcutaneous xenografts; set-up: species or system CB-17 SCID mice; settings: established ~0.75 cm^3 xenografts; DC101 800 μg i.p. every three days; low-dose vinblastine
Procedure: In vivo tumor growth assessment: SK-N-MC, cells were harvested using 1% Trypsin EDTA (GibcoBRL, Gaithesburg, Md.), and single cell suspension of 2×10^6 cells in 0.2 ml of growth media was injected subcutaneously into the flanks of 4-6 week old CB-17 SCID mice (Charles River, St-Constant, Quebec). Approximately 3 weeks later, most tumors had grown to ˜0.75 cm^3, and mice were randomized into groups of 5 animals. Two independent experiments were performed, each totaling 20 animals in 4 groups. The treatment was as follows:
Group I (Control)—0.4 ml of PBS (DC101 vehicle) i.p. every three days and 0.15 ml injectable saline (vinblastine vehicle) i.p. every three days.
Group II—0.4 ml of 2 mg/ml DC101 antibody (800 μg/mouse) (24) every three days and 0.15 ml of injectable saline i.p. every three days
Group III—vinblastine sulfate 0.75 mg/m^2 i.p. bolus at the start of therapy, followed by 1 mg/m^2/day via subcutaneous Alzet osmotic pumps (Alza Corp, Palo Alto, Calif.) for 3 weeks, followed by maintenance therapy with 0.15 ml of 0.067 mg/ml vinblastine sulfate (1.5 mg/m^2) i.p. every three days, and 0.4 ml of PBS i.p. every three days
Group IV—combination of DC101 and vinblastine at doses identical to the single agent groups. […]

[7] = tested on: SK-N-MC cells; assay: In vitro drug sensitivity, 3H-thymidine incorporation; format: cell-based, human; settings: 100-400 ng/ml, 24 hours
From the text: as §1
In vitro determination of drug sensitivity: Three thousand cells in 200 μl growth media per well were plated in 96-well flat bottom tissue culture plates (Nunc, Denmark) and incubated at 37° C., 5% CO2 for 24 hours prior to initiation of treatment. The cells were then washed with PBS and treated with 1-500 ng/ml vinblastine sulphate (Calbiochem, La Jolla, Calif.) for 24 hours, in groups of eight wells per dose. […] Incorporated radioactivity was measured on Wallac 1205 BetaPlate Scintillation Counter (Wallac Oy, Finland) and proliferation was expressed as a percentage of ^3H-thymidine in treated cells vs. that in controls. […]

[8] = mouse, in vivo
Procedure: The body weight, tumor size and general clinical status of the animals were recorded every 2-3 days. Perpendicular tumor diameters were measured using a vernier scale caliper and tumor volume was estimated using the formula for ellipsoid: (width^2×length)/2. Growth curves were statistically analyzed using repeated measures ANOVA. […] As required by institutional guidelines, the mice were sacrificed when tumor size reached 1.5 cm^3 or 7.5-10% of their body weight.
To evaluate this aspect of DC101/vinblastine combination therapy, the health status of the mice was monitored. Weight was plotted at regular intervals and considered a surrogate for evaluation of systemic well being, anorexia, or failure to thrive.

[9] = mouse, in vivo; cited from earlier work

Compound: CC[C@]1(O)C[C@@H]2CN(CCc3c([nH]c4ccccc34)[C@@](C(=O)OC)(c3cc4c(cc3OC)N(C)[C@H]3[C@@](O)(C(=O)OC)[C@H](OC(C)=O)[C@]5(CC)C=CCN6CC[C@]43[C@@H]65)C2)C1 [vinblastine, vinblastine sulphate]
- tumor histology (H/E, TUNEL apoptosis) [1]: increase in the width of the apoptotic rims
- decrease in tumor perfusion (tumor:plasma fluorescence) [2]: 41%
- bFGF induced vascularization of Matrigel plug (plug:plasma fluorescence) [3]: 62.5 % of the positive control group
- inhibition of proliferation (3H-thymidine incorporation) ([4]; 0.78 ng/ml): retained almost the same degree of inhibitory activity
- inhibition of proliferation (3H-thymidine incorporation) ([4]; 100-400 ng/ml): strongly inhibited, especially HUVEC
- inhibition of proliferation (3H-thymidine incorporation) [5]: strongly inhibited
- effect on tumor growth [6]: significant, albeit not sustained, regression of tumor growth
- inhibition of proliferation (3H-thymidine incorporation) [7]: strongly inhibited
- body weight / toxicity profile [8]: some weight gain retardation, but the differences never became significantly different from controls
- MTD in mice relative to MTD in humans [9]: 4-5 times
